According to patent US20070110716A1, “Relationship of a specific metabolite to insulin resistance” (priority 2003, published 2007):

Assays:
L6 myocytes = assay: Acylcarnitine and ketone accumulation in L6 myocytes exposed to high FA; assay type: cell-based, rat; conditions: co-administration
Procedure: Cell culture. Early passages of rat L6 myoblasts (ATCC CRL-1458) from the American Tissue Culture Collection (Rockville, Md.) were grown in Dulbecco's Modified Eagle Medium (DMEM) with 10% Fetal Bovine Serum, 4.0 mM glutamine, and […] gentamycin, in a humidified incubator at 37° C., 5% CO2. Myoblasts were grown on 100 mm dishes to 50-60% confluence and then subcultured onto 6 and 24-well collagen-coated plates for experiments. When cells were 70% confluent, they were induced to differentiate into myotubes by changing to low-serum DFM (DMEM, 2% horse-serum, 4.0 mM glutamine, […] gentamycin). […]
Substrate Metabolism. […] Briefly, the production of [^14C]-labeled [^14C]CO2 (complete oxidation) was measured and where appropriate, [^14C]-labeled ASM, a measure of TCA cycle intermediates and acylcarnitine esters and ketones (incomplete oxidation) was measured, using a modified 48-well microtiter plate (Kim, et al. (2002) Am. J. Physiol. Endocrinol. Metab. 282:E1014-El022). […] Radioactivity was determined by scintillation counting. […] Rates of ketone production were determined by treating media and tissue lysates with sodium borodeuteride, thereby producing ketoacids labeled with deuterium. Trimethylsilyated extracts spiked with internal standards were analyzed by GC/MS, permitting determination of βHB and AcAc in a single analysis. […]

Akt = assay: Insulin-stimulated phosphorylation of Akt in L6 myotubes exposed to high FA; assay type: cell-based, rat; conditions: 24 h exposure to high FA
Procedure: The model predicts that the development of insulin resistance requires FA uptake into muscle mitochondria and subsequent β-oxidation. To test this model, signaling experiments were performed in which mitochondrial FA metabolism was inhibited by carnitine deficiency or etomoxir.

Structure (SMILES)	Accumulation of lipid metabolites (acylcarnitines, βHB-carnitine, free ketones, C2) (L6 myocytes)	Lipid-induced insulin resistance (insulin-stimulated phosphorylation of Akt) (Akt)
CCOC(=O)[C@@]1(CCCCCCOc2ccc(Cl)cc2)CO1 [etomoxir]	prevented	at least partly protected
C[N+](C)(C)CC(O)CC(=O)[O-] (stereo not drawn) [carnitine]		exacerbated lipid-induced insulin resistance in a dose-dependent manner
